The values below come from patent US20230302133A1, “TARGETED PROTEIN DEGRADATION IN THERAPEUTIC CELLS” (The Regents of the University of California, priority 2020, published 2023).

Residues, ends and D or L forms follow the SMILES beside them. *: point of attachment. Cbz = O=C(OCc1ccccc1)*

The subject of assay [1] is CAR construct with SynZIP17 fused to its C-terminus. Put plainly: Degradation of CAR-SZ17 fusion in Jurkat cells. In kind it is cell-based. The settings on record: degron directly fused to the CAR. The procedure: Next, the soluble STUD was used to target a membrane protein for degradation. The ability of the STUD to degrade a CAR in Jurkat cells was tested by generating a CAR construct with SynZIP17 fused to its C-terminus. However, while these STUDs worked to some extent, none of them were able to completely knockdown CAR expression (see FIG. 8).
Membrane targeting STUD: Membrane targeting cells were introduced by lentiviral transduction of two plasmids. […] Cells were then analyzed by flow cytometry. […] CAR and SynNotch expression was measured by antibody staining for a peptide tag fused to the extracellular domain of the CAR/SynNotch.

Assay [2] has as its system CD19BBz CAR. Put plainly: MLN4924 rescue of STUD knockdown of CD19BBz CAR expression in CD8+ primary T cells. In kind it is cell-based, human. The settings on record: 1 μM MLN4924, 5 hours, 37 C. How it is done:
Engineered CD8+T cells expressing were cocultured with NALM6 target cells and measured activation of the CAR by quantifying target cell lysis and expression of the T cell activation marker CD25.
(§1) Inhibitor Assays: 100,000 cells were plated in a 96 well round bottom plate with either 5 μM MG-132 (Sigma-Aldrich #M7449-200UL), 1 μM MLN4924(Active Biochem #A-1139), 100 nM Bafilomycin A1(Enzo Life Sciences #BML-CM110-0100), or DMSO vehicle control and incubated at 37 C for 5 hours. After incubation, cells were pelleted by centrifugation at 400×g for 4 minutes. Supernatant was then removed and cells were washed once with 200 μL PBS. Cells were pelleted again (400×g for 4 minutes) and resuspended in flow buffer (PBS+2% FBS) for assay by flow cytometry.

The subject of assay [3] is NALM6 target cells. Put plainly: MLN dose response: ON switch CAR lysis of NALM6 target cells. The format is cell-based, human. Conditions: MLN4924 1 μM to 0.015625 μM, 72 hours, CD8+ T cells with antiCD19BBz CAR-SynZip and memSTUD. The procedure:
CD8+primary human T cells were engineered with an antiCD19BBz CAR fused to a SynZip and a memSTUD that binds the SynZip using the same plasmids outlined in FIG. 14A by lentiviral transduction. As a control, we also lentivirally transduce CD8+primary human T cells with an antiCD19BBz and a SynZip memSTUD which cannot bind the CAR. These engineered cells and an untransduced control were cocultured with NALM6 target cells for 72 hours at 37 C in the presence of MLN4924 ranging from 1 μM to 0.015625 μM and a DMSO vehicle control. After coculture, target cell lysis was assayed by flow cytometry. Specific target cell lysis of each cell line relative to NALM6 cells cultured alone in the same conditions was then calculated.
100 μL containing media containing a 2×concentration of MLN4924 was added to each well of seeded cells. Cells with MLN4924 were incubated at 37 C for 72 hours. DMSO vehicle at the same concentration as the max MLN4924 concentration was added to cells as a control.

In assay [4] the test system is STUD degradation of GFP in Jurkat T cells. Put plainly: Inhibitor assay: rescue of GFP fluorescence in Jurkat T cells expressing STUD and GFP target. The format is cell-based. The settings on record: 5 hours. The procedure:
Using the 2 plasmid system as described above, we lentivirally transduce Jurkat T cells. 72 hours after removal of lentivirus, we treat these Jurkat T cells and an untransduced control cell line with either 5 μM of the proteasomal inhibitor MG-132, 1 μM of the cullin ring ligase inhibitor MLN4924, 100 nM of the lysosomal inhibitor Bafilomycin Al, or DMSO vehicle control and incubate at 37 C for 5 hours. Using flow cytometry to measure GFP fluorescence following treatment, we observe that GFP fluorescence can indeed be rescued with MG-132 and MLN4924 when cells express both a functional STUD and a GFP target relative to DMSO vehicle control.
as §1

The target in assay [5] is GFP-SZ17 [GFP: P42212]. The experiment in a line: cell-based or functional assay.

With RRRG [Bonger degron], in assay [1], the “reduction of CAR expression” value was “over 90%”. As for `NS(=O)(=O)OC[C@@H]1C[C@@H](n2ccc3c(N[C@H]4CCc5ccccc54)ncnc32)C[C@@H]1O` [MLN4924], the “CAR expression after cullin inhibitor” value in assay [2] is “rescue”. Further, the “specific target cell lysis” value in assay [3] is reported as “dose dependent”. Further, the “GFP fluorescence relative to DMSO vehicle control” value in assay [4] (1 μM MLN4924, 37 C, cells with functional STUD and GFP target) was “rescued”.

“SynZIP18(K->R)-5xGS-RRRG (designed binder)”: in assay [5], the fold change of median normalized GFP fluorescence, flow cytometry, Jurkat T cells (STUD-induced degradation) stood at 42 fold.

Regarding `CC(C)C[C@@H](C=O)NC(=O)[C@H](CC(C)C)NC(=O)[C@H](CC(C)C)NC(=O)OCc1ccccc1` [MG-132] (Cbz-Leu-Leu-Leu-aldehyde), the “GFP fluorescence relative to DMSO vehicle control” value in assay [4] (5 μM MG-132, 37 C, cells with functional STUD and GFP target) is “rescued”.

For bafilomycin, the “GFP fluorescence relative to DMSO vehicle control” value in assay [4] (100 nM Bafilomycin, 37 C) is on record as “No changes”.
